The text below walks through data of patent publication EP4755885A1 (Shanghai Hansoh Biomedical Co., Ltd., priority 2023, dated 2025).

Structures are written as SMILES.

Series [1] is described as follows: Pharmacokinetic evaluation in mice, oral administration. In kind it is in vivo, Balb/c mice. The following applies: p.o. 5 mg/kg, plasma; for AUC(0-inf) / AUC(0-t) / Cmax / Tmax / MRT inf: mouse, in vivo, po; for MRT inf: read-out: MRT 0-∞. As for the experimental part: Balb/c mice were used as test animals to study the pharmacokinetic behavior of the compound of the present invention in mice (plasma) at a dose of 5 mg/kg administered orally and 1 mg/kg administered intravenously.
Balb/c mice, 3 per group, male.
(§1) Preparation of drug for oral administration: 10%PEG400/10%PG/80% glycine buffer (100 mM glycine, 64 Mm NaOH, […]) buffer.
10 ml of PEG400, 10 ml of PG, and 80 ml of (100 mM glycine, 64 Mm NaOH, pH = 9) were measured into a 100 ml volumetric flask, vortexed, mixed homogeneously, and sonicated to obtain a clear solution.
Single PK: An example compound was weighed into a 4 mL glass bottle. The solution was added, and sonication was performed for 10 min to obtain a colorless clear solution having a concentration of 0.5 mg/mL.
The solution was added, and sonication was performed for 10 min to obtain a colorless clear solution having a concentration of 0.5 mg/mL.
Three Balb/c mice, male, respectively administered p.o. after fasting overnight, at a dose of 5 mg/kg and in an administration volume of 10 mL/kg.
The blood samples were placed in EDTA-K2 anticoagulant tubes and centrifuged at 6000 rpm at 4°C for 6 min to separate plasma, which was stored at -80°C. The mice were fed 4 h after administration.
(§2) • 1) 40 µL of a plasma sample was added with 160 µL of acetonitrile for precipitation, and after mixing, the mixture was centrifuged at 3500 × g for 5 to 20 min. • 2) The supernatant solution after treatment was taken for LC/MS/MS analysis of the concentration of the test compound. The LC/MS/MS analysis instrument was AB Sciex API 4000 Qtrap.
• Liquid phase condition: Shimadzu LC-20AD pump • Chromatographic column: Agilent ZORBAX XDB-C18 (50×2.1 mm, 3.5 µm) Mobile phase: Solution A was 0.1% formic acid aqueous solution, and Solution B was acetonitrile • Flow rate: 0.4 mL/min • Elution time: 0-4.0 min, the eluent was as follows:
Main pharmacokinetic parameters were calculated using WinNonlin 6.1.

A short description of series [2]: Pharmacokinetic evaluation in rats, oral administration. Also on record: species or system SD rats. The following applies: rat, in vivo, p.o. 5 mg/kg, plasma; for MRT inf: read-out: MRT 0-∞. As to the method:
SD rats were used as test animals to study the pharmacokinetic behavior of the following example compounds, administered orally at a dose of 5 mg/kg, in the plasma of the rats. SD rats, 3 per group, male. […] An example compound was weighed and added to a 4 mL glass bottle, and the solution was added. […] Sonication was performed for 10 min to obtain a colorless clear solution having a concentration of 0.5 mg/mL. […] The blood samples were placed in EDTA-K2 tubes and centrifuged at 6000 rpm at 4°C for 6 min to separate plasma, which was stored at -80°C. […] • Liquid phase conditions: Shimadzu LC-20AD pump • Mass spectrometry conditions: AB Sciex API 4000 mass spectrometer • Chromatographic column: phenomenex Gemiu 5 um C18 50 × 4.6 mm • Mobile phase: Solution A was 0.1% formic acid aqueous solution, and Solution B was methanol • Flow rate: 1.0 mL/min • Elution time: 0-4.0 min, the eluent was as follows: […] The results of the rat pharmacokinetic experiment are shown in the table below: Table 5: Pharmacokinetic parameters of oral administration of the compound of the present invention in rats

In series [3] the target is T1, human GLP-1 receptor (Homo sapiens, UniProt P43220).
T1 construct: expressed in transfected cells
The experiment in a line: cAMP production in cell line stably transformed with human GLP1 receptor, 30 min co-incubation (HTRF). Format: cell-based. The following applies: CHO-K1/GLP-1R/CRE-luc cells, stimulation for 0.5 h, read-out: EC50. As for the experimental part: (§3) The purpose of this assay example is to test the ability of the compound to activate the human GLP-1 receptor on cell surface. The EC50 for stimulated cAMP production after activation characterizes the ability of the compound to activate the human GLP-1 receptor.
In this experiment, the compound and cells were co-incubated for 30 min.
(§4) Frozen cell line CHO-K1/GLP-1R/CRE-luc stably transformed with human GLP1 receptor was removed from a liquid nitrogen tank, and was placed in a 37°C water bath for rapid thawing. The cells were resuspended in DMEM/F12 medium, and after centrifugation, were washed once. The cells were resuspended in an experimental buffer, i.e., DMEM/F12 medium containing 0.1% casein. After centrifugation, cell density was adjusted using the experimental buffer. The cells were plated onto a 384-well plate at a density of 1500 cells/5 µL/well. Then, each well was added with 2.5 µL of IBMX working solution prepared with the buffer, the final concentration of IBMX being 0.5 mM, and 2.5 µL of a serially diluted compound sample (starting from […], 3-fold dilution, 12 concentrations). The plate was centrifuged at 1000 rpm for 1 min, and was stood for incubation at 37°C for 0.5 h. Determination was performed using the Cisbio cAMP - Gs Dynamic kit. cAMP-d2 and anti-cAMP-Eu3+-Cryptate were diluted 18-fold and 20-fold respectively with cAMP Lysis & Detection Buffer, and were respectively mixed homogeneously. Each well was added with 5 µL of diluted cAMP-d2 solution, and the plate was centrifuged at 1000 rpm for 1 min, and shaken for 30 seconds for homogeneous mixing. Then, each well was added with 5 µL of diluted anti-cAMP-Eu3+-Cryptate solution, and the plate was centrifuged at 1000 rpm for 1 min and was incubated in the dark at room temperature for 1 h. HTRF signals were read using the Biotek Synergy H1 microplate reader, the excitation wavelength being 320 nm and the emission wavelengths being 620 nm and 665 nm.
(§5) The signal-to-signal ratio was calculated (665 nm/620 nm * 10,000). Nonlinear fitting between the signal-to-signal ratio and the sample concentration was performed in GraphPad Prism 10 using a four-parameter equation to obtain the EC50 value.

In series [4] the target is T1, human GLP-1 receptor. The experiment in a line: cAMP production in cell line stably transformed with human GLP1 receptor, 2 h co-incubation (HTRF). Format: cell-based. The following applies: CHO-K1/GLP-1R/CRE-luc cells, stimulation for 2 h, read-out: EC50. As to the method: as §3
In this experiment, the compound and cells were co-incubated for 2 h.
as §4, with “for 2” for “for 0.5”
as §5
(Changes in cAMP serve as a functional read-out for many G protein-coupled receptors.)

Series [5] is described as follows: Pharmacokinetic evaluation in beagles, oral administration. In kind it is in vivo. The following applies: dog, po, p.o. 2 mg/kg, plasma. As for the experimental part: Beagles were used as test animals to study the pharmacokinetic behavior of the compound of the present invention, administered orally at a dose of 2 mg/kg, in beagles (plasma).
Beagles, 3 per group, male.
as §1
Single PK: The compound of the present invention was weighed into a 100 mL glass bottle, and the solution was added. The pH was first adjusted with 1 M NaOH until the compound dissolves to obtain a clear solution, and then the pH was readjusted to pH 9.0-9.5 with 1 M HCl. Sonication was performed for 10 min to obtain a colorless clear solution having a concentration of 0.4 mg/mL.
Three beagles, male, respectively administered p.o. after fasting overnight, at a dose of 2 mg/kg and in an administration volume of 5 mL/kg.
Blood collection: 0.3 mL of blood was collected from the forelimb vein of the beagles before administration and at 0.25, 0.5, 1, 2, 4, 6, 8, and 24 h after administration. The blood samples were placed in EDTA-K2 anticoagulant tubes and centrifuged at 6000 rpm at 4°C for 6 min to separate plasma, which was stored at -80°C. The beagles were fed 4 h after administration.
as §2
(§6) • Liquid phase condition: Shimadzu LC-20AD pump • Chromatographic column: Agilent ZORBAX XDB-C18 (50×2.1 mm, 3.5 µm) Mobile phase: Solution A was 0.1% formic acid aqueous solution, and Solution B was acetonitrile • Flow rate: 0.4 mL/min • Elution time: 0-4.0 min, the eluent was as follows: […]

The nature of series [6]: Pharmacokinetic evaluation in Macaca fascicularis monkeys, oral administration. The following applies: cynomolgus monkey, p.o. 5 mg/kg, plasma. Format: in vivo. As for the experimental part: Macaca fascicularis monkeys were used as test animals to study the pharmacokinetic behavior of the compound of the present invention, administered orally at a dose of 5 mg/kg, in Macaca fascicularis monkeys (plasma).
Macaca fascicularis monkeys, 3 per group, male.
as §1
Single PK: The compound of the present invention was weighed into a 100 mL glass bottle, and the solution was added. The pH was first adjusted with 1 M NaOH until the compound dissolves to obtain a clear solution, and then the pH was readjusted to pH 9.0-9.5 with 1 M HCl. Sonication was performed for 10 min to obtain a colorless clear solution having a concentration of 1 mg/mL.
Three Macaca fascicularis monkeys, male, respectively administered p.o. after fasting overnight, at a dose of 5 mg/kg and in an administration volume of 5 mL/kg.
Blood collection: 0.3 mL of blood was collected from the forelimb vein of the Macaca fascicularis monkeys before administration and at 0.25, 0.5, 1, 2, 4, 6, 8, and 24 h after administration. The blood samples were placed in EDTA-K2 anticoagulant tubes and centrifuged at 6000 rpm at 4°C for 6 min to separate plasma, which was stored at -80°C. The Macaca fascicularis monkeys were fed 4 h after administration.
as §2, §6

The mark [7] stands for this setting: not marked single PK (cassette PK).

T1 sequence (P43220 24-463): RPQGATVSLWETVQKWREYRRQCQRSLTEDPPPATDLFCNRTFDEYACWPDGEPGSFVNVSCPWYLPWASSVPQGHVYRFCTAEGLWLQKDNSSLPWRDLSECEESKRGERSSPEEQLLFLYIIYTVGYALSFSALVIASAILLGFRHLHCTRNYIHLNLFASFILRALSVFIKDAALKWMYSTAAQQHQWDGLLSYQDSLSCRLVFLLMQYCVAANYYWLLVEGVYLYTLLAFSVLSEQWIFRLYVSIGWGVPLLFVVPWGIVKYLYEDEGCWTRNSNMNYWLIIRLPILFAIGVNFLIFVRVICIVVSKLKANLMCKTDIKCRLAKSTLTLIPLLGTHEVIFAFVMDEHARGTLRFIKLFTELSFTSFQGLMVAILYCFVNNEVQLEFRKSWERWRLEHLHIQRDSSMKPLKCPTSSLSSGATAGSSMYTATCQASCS

As a reminder, the AUC(0-inf) is the area under the concentration-time curve extrapolated to infinity. The low end stands for low exposure, the high end for high exposure. For orientation: AUC(0-t) means exposure summed from dosing to a finite time, without extrapolation to infinity. What is called Cmax is the highest concentration seen after dosing. The Tmax is the time at which the peak concentration occurs. The term half-life denotes the time in which the quantity being followed falls by half. High values mean slow decline, low ones rapid decline. Regarding `Cc1cc(-n2nc3c(c2-n2ccn(-c4ccc5c(cnn5C5CC5)c4F)c2=O)[C@H](C)N(C(=O)c2cc4cc([C@H]5CCOC(C)(C)C5)ccc4n2[C@@]2(c4noc(=O)[nH]4)C[C@@H]2C)CC3)cc(C)c1F` [Example 25], in series [1] (setting [7]), the total exposure AUC(0-inf) came to 39000 ng·h/mL, the AUC(0-t) was 30500 ng·h/mL, the concentration peaked (Cmax) at 2060 ng/mL and the time to peak (Tmax) is 2 h. In addition, in series [1] (setting [7]), the MRT inf was 15.2 h and the tl/2 came to 10.7 h. In addition, in series [2], the AUC(0-inf) came to 37300 ng·h/mL, the exposure AUC(0-t) is 28500 ng·h/mL, the Cmax stood at 1960 ng/mL and the Tmax stood at 6 h. In series [2], the half-life was 10.5 h and the MRT inf was 16.4 h.
A word on the EC50: it is the concentration giving half of the maximal effect. Turning to `Cc1cc(-n2nc3c(c2-n2ccn(-c4cc5c6c(c4)OCC(=O)N6CCC5)c2=O)[C@H](C)N(C(=O)c2cc4cc([C@H]5CCOC(C)(C)C5)ccc4n2[C@@]2(c4noc(=O)[nH]4)C[C@@H]2C)CC3)cc(C)c1F` [Example 41], the concentration giving a half-maximal response (EC50) on human GLP-1 receptor [3] was found to be 0.9 nM.
`Cc1cc(-n2nc3c(c2-n2ccn(-c4ccc5c6c(nn5C)CCCOc46)c2=O)[C@H](C)N(C(=O)c2cc4cc([C@H]5CCOC(C)(C)C5)ccc4n2[C@@]2(c4noc(=O)[nH]4)C[C@@H]2C)CC3)cc(C)c1F` [Example 35]: in series [1] (single PK), the AUC(0-inf) stood at 41000 ng·h/mL, the exposure AUC(0-t) turned out to be 32900 ng·h/mL, the concentration peaked (Cmax) at 3070 ng/mL and the time to peak (Tmax) came out at 1.2 h. In addition, in series [1] (single PK), the MRT inf is 13.9 h and the tl/2 is recorded as 10.3 h. Further, in series [2], the AUC(0-inf) amounted to 14100 ng·h/mL, the AUC(0-t) is 12400 ng·h/mL, the concentration peaked (Cmax) at 1110 ng/mL and the time of peak concentration (Tmax) stood at 4.7 h. Further, in series [2], the half-life was 7.2 h and the MRT inf was 11.5 h.
As for `Cc1cc(-n2nc3c(c2-n2ccn(-c4ccc5c(cnn5C5CC5)c4F)c2=O)[C@H](C)N(C(=O)c2cc4cc([C@H]5CCOC(C)(C)C5)ccc4n2[C@@]2(c4noc(=O)[nH]4)[C@@H]4COC[C@@H]42)CC3)cc(C)c1F` [Example 65-1], at human GLP-1 receptor [4], the EC50 was determined as 0.06 nM. In series [1] (single PK), the total exposure AUC(0-inf) worked out at 10900 ng·h/mL, the area under the curve AUC(0-t) amounted to 10600 ng·h/mL, the Cmax stood at 1220 ng/mL and the time of peak concentration (Tmax) was 2.7 h. Further, in series [1] (single PK), the MRT inf is 6.5 h and the tl/2 is reported as 4.8 h. In series [5], this molecule showed an AUC(0-inf) of 43900 ng·h/mL, an AUC(0-t) at 24 h of 41000 ng·h/mL and a half-life of 5.9 h. Besides, the Cmax in series [5] (read-out: Cmax) came to 4360 ng/mL. The MRT inf in series [5] (read-out: MRT 0-∞) was 8.1 h. Further, the Tmax in series [5] (read-out: tmax) amounted to 2.8 h. Further, in series [6], the AUC(0-inf) is 30800 ng·h/mL, the exposure AUC(0-t) was 29700 ng·h/mL, the Cmax stood at 4460 ng/mL and the time to peak (Tmax) came out at 2 h. The molecule further gave a half-life in series [6] of 5.6 h. The MRT inf in series [6] (read-out: MRT 0-∞) amounted to 7.5 h.
